Results reported in patent US5637600A, “Phenylpyrrole derivatives and their use as dopamine D3 antagonists” (SmithKline Beecham p.l.c., priority 1994, dated 1997).
Structures can show the parent of a compound that is named as a salt.

Biological target: T1, human D3 dopamine receptors (Homo sapiens, UniProt P35462)
T1 construct: expressed in transfected cells; host or cells: CHO cells
Assay: [125I] iodosulpride displacement binding to cloned human D3 dopamine receptors expressed in CHO cells
Settings: displacement of 0.1 nM [125I] iodosulpride, CHO cell membranes, 30 min at 37° C.; read-out: IC50 values at the human D3 receptor
Procedure: The inhibition constants (Ki) of test compounds for displacement of [^125 I] iodosulpride binding to human D3 dopamine receptors expressed in CHO cells were determined as follows. […] Cultures were grown as monolayers or in suspension in standard cell culture media. Cells were recovered by scraping (from monolayers) or by centrifugation (from suspension cultures), and were washed two or three times by suspension in phosphate buffered saline followed by collection by centrifugation. Cell pellets were stored frozen at -40° C. Crude cell membranes were prepared by homogenisation followed by high-speed centrifugation, and characterisation of cloned receptors achieved by radioligand binding.
Cell pellets were gently thawed at room temperature, and resuspended in about 20 volumes of ice-cold 50 mM Tris salts (pH 7.4@37° C.), 20 mM EDTA, 0.2M sucrose. The suspension was homogenised using an Ultra-Turrax at full speed for 15 sec. The homogenate was centrifuged at 18,000 r.p.m for 20 min at 4° C. in a SorvalI RC5C centrifuge. The membrane pellet was resuspended in ice-cold 50 mM Tris salts (pH 7.4@37° C.), using an Ultra-Turrax, and recentrifuged at 18,000 r.p.m for 15 min at 4° C. in a Sorvall RC5C. The membranes were washed two more times with ice-cold 50 mM Tris salts (pH 7.4@37° C.). The final pellet was resuspended in 50 mM Tris salts (pH 7.4@37° C.), and the protein content determined using bovine serum albumin as a standard (Bradford, M. M. (1976) Anal. Biochem. 72, 248-254).
Crude cell membranes were incubated with 0.1 nM [^125 I] iodosulpride (~2000 Ci/mmol; Amersham, U. K.), and the test compound in a buffer containing 50 mM Tris salts (pH 7.4@37° C.), 120 mM NaCl, 5 mM KCl, 2 mM CaCl2, 1 mM MgCl2, 0.1% (w/v) bovine serum albumin, in a total volume of 1 ml for 30 min at 37° C. […] The radioactivity on the filters was measured using a Cobra gamma counter (Canberra Packard). […]
Competition curves were analysed simultaneously whenever possible using non-linear least-squares fitting procedures, capable of fitting one, two or three site models.

T1 sequence (P35462 whole entry): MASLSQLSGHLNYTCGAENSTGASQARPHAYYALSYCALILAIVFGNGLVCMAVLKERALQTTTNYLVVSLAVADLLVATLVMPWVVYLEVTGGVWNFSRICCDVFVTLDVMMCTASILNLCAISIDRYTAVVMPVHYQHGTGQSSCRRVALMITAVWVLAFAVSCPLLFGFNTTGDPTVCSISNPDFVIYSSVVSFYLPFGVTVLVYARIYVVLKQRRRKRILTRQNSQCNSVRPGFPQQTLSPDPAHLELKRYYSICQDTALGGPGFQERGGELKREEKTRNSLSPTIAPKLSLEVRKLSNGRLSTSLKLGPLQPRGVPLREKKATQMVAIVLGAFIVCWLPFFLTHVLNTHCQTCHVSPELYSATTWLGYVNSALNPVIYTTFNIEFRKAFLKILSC

`COc1ccc(S(=O)(=O)Oc2ccccc2)cc1-c1ccc(CN2CCCCCC2c2ccccc2)[nH]1` (stereo not drawn) [Example 1, 2-(2-Methoxy-5-Phenoxysulfonylphenyl)-5-(1-[2-phenylazacycloheptyl]methyl)-1H-pyrrole, hydrochloride] was tested. Which IC50 did it give?
The IC50 was 5 to 20 nM.

For `CCN1CCCC1c1ccc(-c2cc(S(=O)(=O)Oc3ccccc3)ccc2OC)[nH]1` (racemic) [Example 2, 2-(2-(R,S)-(1-Ethylpyrrolidinyl))-5-(2-methoxy-5-phenoxysulphonylphenyl)-1H-pyrrole hydrochloride.], which IC50 is on record?
The IC50 was 5 to 20 nM.

`CCN(Cc1ccccc1)Cc1ccc(-c2cc(S(=O)(=O)Oc3ccccc3)ccc2OC)[nH]1` [Example 3, 2-(N-Benzyl-N-ethyl)aminomethyl-5-(2-methoxy-5-phenoxysulphonylphenyl)-1H-pyrrole hydrochloride] was tested. Which IC50 did it give?
The IC50 was 5 to 20 nM.
